These results are taken from patent US9796711B2, “Substituted pyrazolo[3,4-b]pyridin-6-carboxylic acids and method of use” (AbbVie S.àr.l., priority 2015, dated 2017).

Assay [1] addresses T1, ΔF508-CFTR (Homo sapiens, UniProt P13569, DEL508-508).
T1 construct: host or cells: CFBE41o-, doxycycline-inducible
Nature of the assay: CFTR cell surface levels using HRP-tagged ΔF508-CFTR expressing CFBE cells, in the presence of a co-corrector. In kind it is cell-based. As to conditions: HRP-tagged ΔF508-CFTR expressing CFBE cells, in the presence of 3 μM co-corrector; for EC50: read-out: EC50. In a few lines:
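Cells were seeded with 0.5 μg/mL doxycycline and held 68 h at 37 °C. Test compounds plus 3 μM co-corrector (final 0.1% DMSO) were then added for 20 h at 33 °C. Washed cells received HRP substrate, and luminescence was normalized between DMSO and 3 μM co-corrector controls.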

The target of assay [2] is T1, ΔF508-CFTR. Kind of assay: CFTR cell surface levels using HRP-tagged ΔF508-CFTR expressing CFBE cells, intrinsic corrector capacity. As to conditions: for EC50: read-out: EC50. In kind it is cell-based. In a few lines: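 Here the cells express ΔF508-CFTR with horseradish peroxidase inserted in extracellular loop 4, so only rescued channel at the surface gives luminescent signal. Compounds act on their own, 20 h at the reduced temperature of 33 °C; values are percent activity relative to DMSO and a 3 μM corrector.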

[3] abbreviates: HRP-tagged ΔF508-CFTR CFBE41o- cells, compounds alone (intrinsic corrector capacity), 20 hours at 33° C., positive control 3 μM corrector.
Setting [4] is: HRP-tagged ΔF508-CFTR CFBE41o- cells, compounds alone (intrinsic corrector capacity), 20 hours at 33° C.
[5] abbreviates: HRP-tagged ΔF508-CFTR expressing CFBE cells, intrinsic corrector capacity (no co-corrector), 33° C., 20 hours.

T1 sequence (P13569 with tags, fused parts or gaps DEL508-508): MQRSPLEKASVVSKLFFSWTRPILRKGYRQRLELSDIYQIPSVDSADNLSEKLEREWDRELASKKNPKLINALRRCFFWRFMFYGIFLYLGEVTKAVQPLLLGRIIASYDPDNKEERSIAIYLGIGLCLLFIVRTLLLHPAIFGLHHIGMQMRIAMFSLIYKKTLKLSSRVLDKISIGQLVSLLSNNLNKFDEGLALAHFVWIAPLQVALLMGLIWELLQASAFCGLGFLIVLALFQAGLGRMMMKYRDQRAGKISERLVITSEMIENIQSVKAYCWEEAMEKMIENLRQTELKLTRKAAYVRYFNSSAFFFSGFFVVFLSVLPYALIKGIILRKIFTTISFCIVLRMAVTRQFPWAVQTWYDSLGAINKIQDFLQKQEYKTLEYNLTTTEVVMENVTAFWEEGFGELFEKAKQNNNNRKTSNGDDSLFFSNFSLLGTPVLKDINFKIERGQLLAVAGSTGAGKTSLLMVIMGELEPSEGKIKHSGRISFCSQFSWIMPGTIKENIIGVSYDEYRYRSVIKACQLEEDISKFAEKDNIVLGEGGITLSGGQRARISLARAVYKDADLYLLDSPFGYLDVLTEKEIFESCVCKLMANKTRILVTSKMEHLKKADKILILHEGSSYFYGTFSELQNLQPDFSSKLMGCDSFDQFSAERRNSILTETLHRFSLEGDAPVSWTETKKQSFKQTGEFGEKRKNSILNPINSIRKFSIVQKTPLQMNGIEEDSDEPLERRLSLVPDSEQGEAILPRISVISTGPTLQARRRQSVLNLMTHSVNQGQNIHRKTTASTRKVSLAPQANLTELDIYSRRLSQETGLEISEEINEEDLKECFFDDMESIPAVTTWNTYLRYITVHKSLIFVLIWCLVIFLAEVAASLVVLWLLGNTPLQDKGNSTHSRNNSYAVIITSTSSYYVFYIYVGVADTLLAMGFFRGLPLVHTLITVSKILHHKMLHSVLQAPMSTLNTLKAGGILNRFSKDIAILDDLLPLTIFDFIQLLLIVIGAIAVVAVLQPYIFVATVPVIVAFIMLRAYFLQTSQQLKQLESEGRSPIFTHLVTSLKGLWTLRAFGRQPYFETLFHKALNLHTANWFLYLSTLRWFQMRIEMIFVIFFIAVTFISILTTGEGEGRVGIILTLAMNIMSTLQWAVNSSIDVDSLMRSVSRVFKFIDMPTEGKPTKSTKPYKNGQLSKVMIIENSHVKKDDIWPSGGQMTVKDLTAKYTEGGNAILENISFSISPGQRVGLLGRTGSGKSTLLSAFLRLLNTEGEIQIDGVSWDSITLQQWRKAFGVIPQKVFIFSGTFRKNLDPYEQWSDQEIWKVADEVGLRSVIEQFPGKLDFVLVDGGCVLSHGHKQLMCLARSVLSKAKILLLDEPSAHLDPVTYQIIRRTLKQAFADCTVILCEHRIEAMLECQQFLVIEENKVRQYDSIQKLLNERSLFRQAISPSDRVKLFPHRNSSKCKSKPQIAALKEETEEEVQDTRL

As usually defined, the EC50 is the concentration needed to bring the measured effect to its halfway point. In the case of `Cc1nn(-c2ccccc2)c2nc(C(=O)O)cc(OC3CC4(COC4)C3)c12` [compound 344, 3-methyl-4-[(2-oxaspiro[3.3]heptan-6-yl)oxy]-1-phenyl-1H-pyrazolo[3,4-b]pyridine-6-carboxylic acid], the “% Activation” value in assay [1] was 218.25%; in assay [2] (setting [3]), 69.225%. Moreover, the EC50 in assay [1] was 1770 nM; in assay [2] (setting [4]), 2510 nM.

As for `O=C1CCC[C@H]2CN(c3cc(C(=O)O)nc4c3c(C3CCC3)nn4-c3ccccc3)C[C@H]2N1` [compound 505, 3-cyclobutyl-4-[(5aS,8aS)-2-oxooctahydropyrrolo[3,4-b]azepin-7(1H)-yl]-1-phenyl-1H-pyrazolo[3,4-b]pyridine-6-carboxylic acid], in assay [1], the “% Activation” value amounted to 118.3% and the EC50 was over 10000 nM. For the same compound, in assay [2] (setting [5]), the “% Activation” value was -6.616% and the EC50 is over 10000 nM.

In the case of `CC(C)c1nn(-c2cccc(C(F)(F)F)c2)c2nc(C(=O)O)cc(-c3ccc(N(C)C4CCOCC4)nc3)c12` [compound 287, 4-{6-[methyl(oxan-4-yl)amino]pyridin-3-yl}-3-(propan-2-yl)-1[3-(trifluoromethyl)phenyl]-1H-pyrazolo[3,4-b]pyridine-6-carboxylic acid], the “% Activation” value amounted to 464.35% in assay [1] and 234.95% in assay [2] (setting [3]). Also, the figures for the EC50 in assay [1] and in assay [2] (setting [4]) were 429 nM and 535 nM, respectively.

On to `CC1(COc2cc(C(=O)O)nc3c2c(C2CCC2)nn3-c2ccccc2)CC1` [compound 630, 3-cyclobutyl-4-[(1-methylcyclopropyl)methoxy]-1-phenyl-1H-pyrazolo[3,4-b]pyridine-6-carboxylic acid], for which, in assay [1], the “% Activation” value is recorded as 323.7% and the EC50 was 254 nM. Besides, in assay [2] (setting [5]), the “% Activation” value is recorded as 136.15% and the EC50 came out at 308 nM.

With `CC(C)c1nn(-c2ccc(F)cc2)c2nc(C(=O)O)cc(N3CCC4(CC3)OCCO4)c12` [compound 782, 4-(1,4-dioxa-8-azaspiro[4.5]decan-8-yl)-1-(4-fluorophenyl)-3-(propan-2-yl)-1H-pyrazolo[3,4-b]pyridine-6-carboxylic acid], in assay [1], the “% Activation” value turned out to be 345.2% and the EC50 was 272 nM. Moreover, in assay [2] (setting [5]), the “% Activation” value was determined as 174.4% and the EC50 came out at 673 nM.

As for `CS(=O)(=O)C1(COc2cc(C(=O)O)nc3c2c(C2CCC2)nn3-c2ccccc2)CCOCC1` [compound 627, 3-cyclobutyl-4-{[4-(methanesulfonyl)oxan-4-yl]methoxy}-1-phenyl-1H-pyrazolo[3,4-b]pyridine-6-carboxylic acid], in assay [1], the “% Activation” value is recorded as 126.25% and the EC50 was over 10000 nM. Moreover, in assay [2] (setting [5]), the “% Activation” value is listed as 9.221% and the EC50 is over 10000 nM.

`N#CC1CCN(c2ccc(-c3cc(C(=O)O)nc4c3c(C3CCC3)nn4-c3cccc(N4CCCC4)c3)cc2)CC1` [compound 247, 4-[4-(4-cyanopiperidin-1-yl)phenyl]-3-cyclobutyl-1-[3-(pyrrolidin-1-yl)phenyl]-1H-pyrazolo[3,4-b]pyridine-6-carboxylic acid]: the “% Activation” value in assay [1] was 569.07%; in assay [2] (setting [3]), 390.27%. The EC50 is 332 nM in assay [1] and 420 nM in assay [2] (setting [4]).

Regarding `COCCOC1CCN(c2cc(C(=O)O)nc3c2c(C)nn3-c2ccccc2)CC1` [compound 318, 4-[4-(2-methoxyethoxy)piperidin-1-yl]-3-methyl-1-phenyl-1H-pyrazolo[3,4-b]pyridine-6-carboxylic acid], the “% Activation” value in assay [1] turned out to be 323.72%; in assay [2] (setting [3]) it was 134.15%. Moreover, the figures for the concentration giving a half-maximal response (EC50) in assay [1] and in assay [2] (setting [4]) were 1860 nM and 2630 nM, respectively.

Take `CC(C)c1nn(-c2ccc(F)cc2)c2nc(C(=O)O)cc(N3CCC4(CCCO4)CC3)c12` [compound 401, 1-(4-fluorophenyl)-4-(1-oxa-8-azaspiro[4.5]decan-8-yl)-3-(propan-2-yl)-1H-pyrazolo[3,4-b]pyridine-6-carboxylic acid]: in assay [1], the “% Activation” value amounted to 306.07% and the EC50 is 653 nM. Also, in assay [2] (setting [5]), the “% Activation” value is reported as 136.97% and the EC50 worked out at 1100 nM.

As for `CC1(F)CN(c2cc(C(=O)O)nc3c2c(C2CCC2)nn3-c2ccccc2)C1` [compound 451, 3-cyclobutyl-4-(3-fluoro-3-methylazetidin-1-yl)-1-phenyl-1H-pyrazolo[3,4-b]pyridine-6-carboxylic acid], in assay [1], the “% Activation” value worked out at 234.95% and the EC50 was 874 nM. For the same compound, in assay [2] (setting [5]), the “% Activation” value is listed as 71.425% and the EC50 was found to be 1290 nM.

Take `CC(C)c1nn(-c2ccc(F)cc2)c2nc(C(=O)O)cc(-c3cnc(N(C)C4CCOCC4)nc3)c12` [compound 280, 1-(4-fluorophenyl)-4-{2-[methyl(oxan-4-yl)amino]pyrimidin-5-yl}-3-(propan-2-yl)-1H-pyrazolo[3,4-b]pyridine-6-carboxylic acid]: the “% Activation” value is listed as 440.83% in assay [1] and 238.6% in assay [2] (setting [3]). The figures for the EC50 in assay [1] and in assay [2] (setting [4]) were 249 nM and 485 nM, respectively.

Turning to `N#CC1CN(C2CCN(c3cc(C(=O)O)nc4c3c(C3CCC3)nn4-c3ccc(F)cc3)CC2)CCO1` (centres unmarked) [compound 851, 4-[4-(2-cyanomorpholin-4-yl)piperidin-1-yl]-3-cyclobutyl-1-(4-fluorophenyl)-1H-pyrazolo[3,4-b]pyridine-6-carboxylic acid], in assay [1], the “% Activation” value is reported as 559.8% and the EC50 stood at 123 nM. In assay [2] (setting [5]), the “% Activation” value stood at 342.9% and the EC50 is 244 nM.

As for `Cc1nn(-c2ccccc2)c2nc(C(=O)O)cc(-c3ccc(N4C[C@@H](O)[C@H](O)C4)cc3)c12` [compound 116, 4-{4-[(3R,4R)-3,4-dihydroxypyrrolidin-1-yl]phenyl}-3-methyl-1-phenyl-1H-pyrazolo[3,4-b]pyridine-6-carboxylic acid], the “% Activation” value in assay [1] is recorded as 262.7%; in assay [2] (setting [3]), 81.72%. Besides, the EC50 in assay [1] and in assay [2] (setting [4]) was 3340 nM throughout.

Consider `O=C(O)c1cc(OCCN2CCS(=O)(=O)CC2)c2c(C3CCC3)nn(-c3ccccc3)c2n1` [compound 436, 3-cyclobutyl-4-[2-(1,1-dioxo-lλ^6,4-thiazinan-4-yl)ethoxy]-1-phenyl-1H-pyrazolo[3,4-b]pyridine-6-carboxylic acid], for which, in assay [1], the “% Activation” value is reported as 157.15% and the EC50 was 2510 nM. For the same compound, in assay [2] (setting [5]), the “% Activation” value was found to be 24.16% and the EC50 worked out at 4170 nM.

On to `CS(=O)(=O)N1CCN(c2cc(C(=O)O)nc3c2c(C2CCC2)nn3-c2ccccc2)CC1` [compound 523, 3-cyclobutyl-4-[4-(methanesulfonyl)piperazin-1-yl]-1-phenyl-1H-pyrazolo[3,4-b]pyridine-6-carboxylic acid], for which, in assay [1], the “% Activation” value is reported as 320.1% and the EC50 came to 630 nM. Also, in assay [2] (setting [5]), the “% Activation” value stood at 136.2% and the EC50 stood at 2850 nM.

For the compound `COCCC1(COc2cc(C(=O)O)nc3c2c(C)nn3-c2ccccc2)CC1` [compound 388, 4-{[1-(2-methoxyethyl)cyclopropyl]methoxy}-3-methyl-1-phenyl-1H-pyrazolo[3,4-b]pyridine-6-carboxylic acid], the “% Activation” value in assay [1] was found to be 171.6%; in assay [2] (setting [3]), 50.555%. Also, the EC50 was 1460 nM in assay [1] and 1670 nM in assay [2] (setting [4]).

Consider `CC(C)c1nn(C2CCCCC2)c2nc(C(=O)O)cc(-c3cccn3C)c12` [compound 362, 1-cyclohexyl-4-(1-methyl-1H-pyrrol-2-yl)-3-(propan-2-yl)-1H-pyrazolo[3,4-b]pyridine-6-carboxylic acid], for which the “% Activation” value in assay [1] came to 170.85%; in assay [2] (setting [3]), 44.405%. The values for the EC50 in assay [1] and in assay [2] (setting [4]) were 1800 nM and 2030 nM, respectively.

On to `Cc1nn(-c2ccc(F)cc2F)c2nc(C(=O)O)cc(-c3ccc(N4CCOCC4)cc3)c12` [compound 105, 1-(2,4-difluorophenyl)-3-methyl-4-[4-(morpholin-4-yl)phenyl]-1H-pyrazolo[3,4-b]pyridine-6-carboxylic acid], for which the “% Activation” value in assay [1] was found to be 383.25%; in assay [2] (setting [3]), 179.05%. The EC50 worked out at 879 nM in assay [1] and 949 nM in assay [2] (setting [4]).

As to `Cc1nn(C)cc1-c1cc(C(=O)O)nc2c1c(C(C)C)nn2C1CCCCC1` [compound 352, 1-cyclohexyl-4-(1,3-dimethyl-1H-pyrazol-4-yl)-3-(propan-2-yl)-1H-pyrazolo[3,4-b]pyridine-6-carboxylic acid], the “% Activation” value in assay [1] was determined as 210.15%; in assay [2] (setting [3]) it was 55.175%. Besides, the EC50 in assay [1] was found to be 1430 nM; in assay [2] (setting [4]) it was 1510 nM.

For `Cc1nn(-c2ccccc2)c2nc(C(=O)O)cc(N3CCC(O)CC3)c12` [compound 137, 4-(4-hydroxypiperidin-1-yl)-3-methyl-1-phenyl-1H-pyrazolo[3,4-b]pyridine-6-carboxylic acid], the “% Activation” value in assay [1] was determined as 158.05%; in assay [2] (setting [3]), 27.985%. Further, the EC50 in assay [1] was 3340 nM; in assay [2] (setting [4]), over 10000 nM.
